Reference: patent publication US20190352276A1, “INHIBITORS OF BRUTON'S TYROSINE KINASE” (Joint Stock Company "Biocad", priority 2016, published 2019)

Legend:
[1] = Permeability through the monolayer of Caco-2 cells; assay type: in vitro ADME; settings: human; for Papp A→B at 2 h, 10 μM / Papp B→A at 2 h, 10 μM: 2 h at 37° C.; for efflux ratio at 2 h, 10 μM: read-out: efflux (Papp B-A/Papp A-B)
Method in brief: (§1)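 Bidirectional transport measured over 7200 s with 10 μM compound, using an apical buffer at pH 6.5 and a basolateral Hanks/HEPES/glucose buffer at pH 7.4 containing 1% BSA. Monolayers were 21-day Caco-2 cultures verified with Lucifer Yellow. Chamber concentrations quantified chromatographically to derive Papp in both directions and their B-A/A-B efflux ratio.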

Caco-2 cells = test: Permeability through the monolayer of Caco-2 cells; assay type: in vitro ADME
Method in brief: as §1

Papp A→B at 2 h, 10 μM [1] [×10⁻⁶ cm/s] | Papp B→A at 2 h, 10 μM [1] [×10⁻⁶ cm/s] | efflux ratio at 2 h, 10 μM [1] | efflux (Papp B-A/Papp A-B) (Caco-2 cells) | Structure (SMILES)
21 | 13.2 | 0.6 | – | C=CC(=O)N1CCC[C@@H](n2nc(-c3ccc(Oc4ccncc4)cc3)c3cncc(Cl)c32)C1 [BCD-BTK-125, (R)-1-(1-acryloylpiperidin-3-yl)-7-chloro-3-(4-(pyridin-4-yloxy)phenyl)-1H-pyrazolo[4,3-c]pyridine]
52.2 | 5.7 | 0.1 | – | C=CC(=O)N1CCC[C@@H](n2nc(-c3ccc(Oc4ccncc4)cc3)c3c(N)ncc(Cl)c32)C1 [BCD-BTK-139, (R)-1-(1-acryloylpiperidin-3-yl)-7-chloro-3-(4-(pyridin-4-yloxy)phenyl)-1H-pyrazolo[4,3-c]pyridin-4-amine]
20.3 | 1.91 | – | 0.09 | C=CC(=O)N1CCC[C@@H](n2nc(-c3ccc(Oc4ccncc4C#N)cc3)c3cncc(Cl)c32)C1 [BCD-BTK-202, (R)-4-(4-(1-(1-acryloylpiperidin-3-yl)-7-chloro-1H-pyrazolo[4,3-c]pyridin-3-yl)phenoxy)nicotinonitrile]
26.5 | 2.68 | 0.1 | – | C=CC(=O)N1CCC[C@@H](n2nc(-c3ccc(Oc4cccnc4C#N)cc3)c3cncc(F)c32)C1 [BCD-BTK-230, (R)-3-(4-(1-(1-acryloylpiperidin-3-yl)-7-fluoro-1H-pyrazolo[4,3-c]pyridin-3-yl)phenoxy)picolinonitrile]
8.2 | 9.2 | 1.1 | – | C=CC(=O)N1CCC[C@@H](n2nc(-c3ccc(C(=O)Nc4ccccn4)cc3)c3c(N)ncc(C#N)c32)C1 [BCD-BTK-234, (R)-4-(1-(1-acryloylpiperidin-3-yl)-4-amino-7-cyano-1H-pyrazolo[4,3-c]pyridin-3-yl)-N-(pyridine-2-yl)benzamide]
18.2 | 11.1 | 0.61 | – | C=CC(=O)N1CCC[C@@H](n2nc(-c3ccc(C(=O)Nc4ccccn4)cc3)c3c(N)ncc(OC)c32)C1 [BCD-BTK-240, (R)-4-(1-(1-acryloylpiperidin-3-yl)-4-amino-7-methoxy-1H-pyrazolo[4,3-c]pyridin-3-yl)-N-(pyridin-2-yl)benzamide]
8.3 | 1.5 | 0.2 | – | C=CC(=O)N1CCC[C@@H](n2nc(-c3ccc(C(=O)Nc4cc(C(F)(F)F)ccn4)cc3)c3c(N)ncc(Cl)c32)C1 [BCD-BTK-251, (R)-4-(1-(1-acryloylpiperidin-3-yl)-4-amino-7-chloro-1H-pyrazolo[4,3-c]pyridin-3-yl)-N-(4-(trifluoromethyl)pyridin-2-yl)benzamide]
11.6 | 0.07 | – | 0.006 | C=CC(=O)N1CCC[C@@H](n2nc(-c3cnc(C(=O)Nc4cc(C(F)(F)CCC)ccn4)nc3)c3cncc(Cl)c32)C1 [BCD-BTK-292, (R)-5-(1-(1-acryloylpiperidin-3-yl)-7-chloro-1H-pyrazolo[4,3-c]pyridin-3-yl)-N-(4-(1,1-difluorobutyl)pyridin-2-yl)pyrimidine-2-carboxamide]
